Experimental data reported in US20020199220A1, “Methods to propagate plants via somatic embryogenesis and to transfer genes into ornamental statice and other members of the family plumbaginaceae” (priority 2001, published 2002).
Where “and” joins values, the source holds several entries; their conditions need not be identical. Equal values may be shown once.

Assays:
Type in all cases: cell-based
[1] = test system: L. bellidifolium cotyledon explants; assay: Induction of embryogenic calli from cotyledon explants; conditions: for Callus Description / % Response / Number of Explants responded/cultured: MS medium with 1 mg/l 2,4-D, 0.1 mg/l kinetin; for Callus Description / % Response: 30 days after culture; for % Response: mean of experiments; for Number of Explants responded/cultured: scored 30 days after culture, Exp.1 to 3
Experimental: (§1) Seeds of perennial statice Limoniurn bellidifolium (Gouan) Durmort.(Statice caspia Willd.) and annual statice Linonium sinuatum (L.) Mill. Cv. Soiree, and other Limonium species were purchased from Park Seed Co. (Greenwood, S.C., U.S.A.). Seeds were surface-sterilized by rinsing in 70% (v/v) ethanol for 30 seconds and in 10% (v/v) commercial bleach for 10 minutes. Following this treatment, they were washed five times in sterile distilled water and germinated under light on half-strength Murashige and Skoog basal medium (MS, Murashige and Skoog, 1962) containing 1.5% (wt./v) sucrose and 0.8% (wt./v) agar (Agar-agar, Sigma, St. Louis, Mo., U.S.A.). The pH was adjusted to 5.8 prior to autoclaving for 5 days to provide the explants.
(§2) Cotyledon and hypocotyl explants were dissected from 5-day old seedlings. The hypocotyls were cut 1 mm below the cotyledonary node and 1 mm above the hypocotyl-root junction to provide 2 mm-long explants. The cotyledons were separated from the cotyledon-petiole junction and halved into 2 to 3 mm long pieces. The explants were cultured, 10 per 100×15 mm Petri plate, on MS medium containing MS mineral salts, B5 vitamins (Gamborg et al. 1968), sucrose (2, 3 or 4% wt./v), 0.1 mg.l^−1 kinetin and 1, 2 or 5 mg.l^−1 2,4-D, pH 5.8. The plates were sealed with parafilm (American National Can, WI) and incubated at 25° C. under 16/8 h (day/night) light regime (PPFD 46 μmol.quanta.m^−2.s^−1, cool white fluorescent lamps). The explants were subcultured every two weeks on the same media.
(§3) Cotyledon explants from L. bellidifolium and L. sinuatum initiated callus within 7-10 days in culture on media containing 1 mg.l^−1 2,4-D and various levels of sucrose. Embryogenic callus was characterized by globular structures, smooth and shiny texture and creamy color. On media containing 1 mg.l^−1 2,4-D and 0.1 mg.l^−1 kinetin, increasing sucrose concentrations increased the induction of well developed embryogenic calli, 4% sucrose being the optimum (see the following Table 1). Some of the cotyledon explants respond with direct somatic embryogenesis without a callus phase. The embryogenic calli produced repetitive globular embryos on the same induction media for both species. Medium containing 4% sucrose was also optimum to induce embryogenic calli from hypocotyl explants (79% response for 28 explants cultured for L. bellidifolium and 86% response for 21 explants cultured for L. sinuatum). On an average, 2-3 somatic embryos developed per explant weekly. At 2% sucrose, friable non-embryogenic callus grew along with less defined embryogenic calli on the same explant.

[2] = test system: L. sinuatum cotyledon explants; assay: as above; conditions: for Callus Description / % Response / Number of Explants responded/cultured: MS medium with 1 mg/l 2,4-D, 0.1 mg/l kinetin; for Callus Description / % Response: 30 days after culture; for % Response: mean of experiments; for Number of Explants responded/cultured: scored 30 days after culture, Exp.1 to 3
Experimental: as §1, §2, §3

[3] = test system: L. bellidifolium hypocotyl explants; assay: Induction of embryogenic calli from hypocotyl explants; conditions: medium containing 4% sucrose; 28 explants cultured
Experimental: as §2
(§4) Cotyledon explants from L. bellidifolium and L. sinuatum initiated callus within 7-10 days in culture on media containing 1 mg.l^−1 2,4-D and various levels of sucrose. Embryogenic callus was characterized by globular structures, smooth and shiny texture and creamy color. On media containing 1 mg.l^−1 2,4-D and 0.1 mg.l^−1 kinetin, increasing sucrose concentrations increased the induction of well developed embryogenic calli, 4% sucrose being the optimum (see the following Table 1). Some of the cotyledon explants respond with direct somatic embryogenesis without a callus phase. […]

[4] = test system: L. sinuatum hypocotyl explants; assay: as above; conditions: medium containing 4% sucrose; 21 explants cultured
Experimental: as §2, §4

[5] = test system: somatic embryos from embryogenic calli derived from L. bellidifolium and L. sinuatum cotyledon and hypocotyl explants; assay: Maturation and germination of somatic embryos from cultured embryogenic calli; design: key to Germination: − = No response; + slow (21-30 days); ++ medium (15-20 days); ++++- Fast (14 days) with 100% maturation and germination; conditions: for somatic embryo morphology: no growth regulators; for Germination / Maturation: MS medium
Experimental: For maturation, somatic embryos at late-globular, heart and torpedo stages were subcultured on MS media containing 3% or 4% (wt./v) sucrose with or without 0.1 mg.l^−1 kinetin. Calli differentiating globular embryos were transferred to maturation medium, MS supplemented with 3 or 4% sucrose and 0 or 0.1 mg.l^−1 kinetin. Late globular, heart, torpedo and cotyledonary stages differentiated in these media and with faster and higher response on media with 4% sucrose compared to that on 3% sucrose (see Table 2).
Supplementation of this medium with 0.1 mg/l kinetin induced embryo maturation and germination within 10 to 14 days of subculture compared to more than 21 days on media lacking kinetin.

[6] = media containing 1 mg/l 2,4-D and various levels of sucrose

Structure (SMILES): O=C(O)COc1ccc(Cl)cc1Cl [2,4-D, reference compound]
- time to callus initiation in culture [1, 6]: 7 to 10 days
- time to callus initiation in culture [2, 6]: 7 to 10 days

Structure (SMILES): OC[C@H]1O[C@@](CO)(O[C@H]2O[C@H](CO)[C@@H](O)[C@H](O)[C@H]2O)[C@@H](O)[C@@H]1O [sucrose]
- Callus Description ([1]; 2% sucrose): W,E,F
- % Response ([1]; 2% sucrose): 75%
- Number of Explants responded/cultured ([1]; 2% sucrose): 15/24 and 23/28 and 53/67
- Callus Description ([1]; 3% sucrose): W/G,E(g,t)
- % Response ([1]; 3% sucrose): 79%
- Number of Explants responded/cultured ([1]; 3% sucrose): 46/58 and 53/62 and 48/68
- Callus Description ([1]; 4% sucrose): W/G,E(g,h,t)
- % Response ([1]; 4% sucrose): 89%
- Number of Explants responded/cultured ([1]; 4% sucrose): 29/32 and 1/26 and 39/41
- Callus Description ([2]; 2% sucrose): W,E,F
- % Response ([2]; 2% sucrose): 72%
- Number of Explants responded/cultured ([2]; 2% sucrose): 12/19 and 38/44 and 13/20
- Callus Description ([2]; 3% sucrose): W/G,B(g,t)
- % Response ([2]; 3% sucrose): 79%
- Number of Explants responded/cultured ([2]; 3% sucrose): 50/61 and 49/74 and 61/69
- Callus Description ([2]; 4% sucrose): W/G,B(g,h,t)
- % Response ([2]; 4% sucrose): 88%
- Number of Explants responded/cultured ([2]; 4% sucrose): 42/48 and 32/39 and 37/40
- response (induction of embryogenic calli) [3]: 79%
- response (induction of embryogenic calli) [4]: 86%
- somatic embryo morphology ([5]; 3% sucrose): abnormally long roots with poor shoot development
- Germination ([5]; 3% sucrose, kinetin 0.0 mg/l): −
- Maturation ([5]; 3% sucrose, kinetin 0.0 mg/l): + (+ slow (21-30 days))
- Germination ([5]; 3% sucrose, kinetin 0.1 mg/l): ++ (++ medium (15-20 days))
- Maturation ([5]; 3% sucrose, kinetin 0.1 mg/l): ++ (++ medium (15-20 days))
- Germination ([5]; 4% sucrose, kinetin 0.0 mg/l): + (+ slow (21-30 days))
- Maturation ([5]; 4% sucrose, kinetin 0.0 mg/l): ++ (++ medium (15-20 days))
- Germination ([5]; 4% sucrose, kinetin 0.1 mg/l): ++++ (++++- Fast (14 days) with 100% maturation and germination)
- Maturation ([5]; 4% sucrose, kinetin 0.1 mg/l): ++++ (++++- Fast (14 days) with 100% maturation and germination)
- somatic embryo morphology ([5]; sucrose increased to 4%): inhibited this abnormal rooting
